Counter-ions that a name gives are not always drawn. Like-named read-outs stand apart in the source and are kept apart here.

The text below walks through data of patent US10973780B2 (priority 2019, dated 2021).

The conditions of data set [1]: elevated pHs around 5.5; cited from earlier work.
A short description of data set [2]: pH of ketamine formulations and ketamine HCl solutions. It counts as physicochemical.
The conditions of data set [3]: cited from earlier work.
The conditions of data set [4]: cited from earlier work. This is another data set of the same source.
The conditions of data set [5]: cited from earlier work. The source holds these as a separate data set.
For data set [6] the following is noted: cited from earlier work. This is another data set of the same source.
The conditions of data set [7]: cited from earlier work. The source holds these as a separate data set.
For data set [8] the following is noted: cited from earlier work. This is another data set of the same source.
For data set [9] the following is noted: rat, daily IV injections for 1 month; cited from earlier work.

In the case of `CNC1(c2ccccc2Cl)CCCCC1=O` (centres unmarked) [ketamine HCl, ketamine hydrochloride], the precipitation entry in data set [1] was “exhibit precipitation”. For the same molecule, the pH entry in [2] (100 mg/mL (ketamine freebase equivalent) in water) is recorded as “around 4”. Moreover, the “average pH” value in data set [2] (measured in USP bottles of ketamine 100 mg/mL) came to 3.74; in data set [2] (solutions formed from powdered ketamine HCl) it was 3.93.

For the molecule `CNC1(c2ccccc2Cl)CCCCC1=O` (centres unmarked) [ketamine, 2-(2-chlorophenyl)-2-(methylamino)cyclohexanone], the “Metabolite Exposure” value is on record as “Low” in [3] (Intramuscular); “High” in data set [3] (Intranasal); “Low” in data set [3] (Intravenous); “Low” in data set [3] (Subcutaneous); “High” in data set [3] (Sublingual). Further, the entries for the “increase in exposure to undesirable inflammatory metabolites” value in data set [3] (oral dosing to reach equivalence to a short IV or IM treatment) and in data set [3] (sublingual route) were “up to 9 fold” and 3 fold, respectively. Further, the “Bioavailability (grade)” value in [4] (Intramuscular) is reported as “High”; in data set [4] (Intranasal), “Low”; in [4] (Intravenous) it was “Highest”; in data set [4] (Oral), “Very Low”; in [4] (Subcutaneous), “High”; in data set [4] (Sublingual), “Low”. In addition, the Bioavailability is 25-50% in [4] (Intranasal); 100% in data set [4] (Intravenous); 11-20% in data set [4] (Oral); more than 90% in data set [4] (Subcutaneous); 29% in [4] (Sublingual). Moreover, the “Side Effects” value was “High” in [5] (Intramuscular); “High” in data set [5] (Intranasal); “Moderate” in [5] (Intravenous); “Moderate” in [5] (Oral); “Low” in data set [5] (Subcutaneous); “Moderate” in [5] (Sublingual).

As to “sulfobutyl-ether-beta-cyclodextrin [SBE-β-CD]”, the osmolality in data set [6] (20% solution, degree of substitution 6.5) is given as 785 mOsm/kg. Also, the “concentration iso-osmotic with blood and extracellular fluid” value in data set [6] (according to the manufacturer) was 9.5-11.4%. Further, the solubility in data set [7] was 600 mg/mL. In addition, in data set [8] (6 months, humans older than 2 years), the amount found safe was approximately 250 mg/kg/day. In addition, the tolerability result in [8] (infusion rates 292 to 4375 mg/min) is on record as “well-tolerated with no clinically relevant side effects or changes in renal biomarkers”. In addition, in [9], the NOEL is listed as 80 mg/kg.

In the case of `CC(O)COC[C@H]1O[C@@H]2O[C@H]3[C@H](O)[C@@H](O)[C@@H](O[C@H]4[C@H](O)[C@@H](O)[C@@H](O[C@H]5[C@H](O)[C@@H](O)[C@@H](O[C@H]6[C@H](O)[C@@H](O)[C@@H](O[C@H]7[C@H](O)[C@@H](O)[C@@H](O[C@H]8[C@H](O)[C@@H](O)[C@@H](O[C@H]1[C@H](O)[C@H]2O)O[C@@H]8COCC(C)O)O[C@@H]7COCC(C)O)O[C@@H]6COCC(C)O)O[C@@H]5COCC(C)O)O[C@@H]4COCC(C)O)O[C@@H]3COCC(C)O` (stereo partly drawn) [HP-β-CD, hydroxypropyl-beta-cyclodextrin], the amount found safe in data set [8] (in vivo) is recorded as approximately 250 mg/kg/day.
